The target of this assay is T1, recombinant AG1 protein (SEQ ID No:13), E-α-bisabolene synthase (Abies grandis, UniProt O81086).
T1 construct: GST (fusion partner of vector pGEX-4T-2); made in house; host or cells: E. coli XL1-Blue/pGAG1
T1 sequence (O81086 1-817): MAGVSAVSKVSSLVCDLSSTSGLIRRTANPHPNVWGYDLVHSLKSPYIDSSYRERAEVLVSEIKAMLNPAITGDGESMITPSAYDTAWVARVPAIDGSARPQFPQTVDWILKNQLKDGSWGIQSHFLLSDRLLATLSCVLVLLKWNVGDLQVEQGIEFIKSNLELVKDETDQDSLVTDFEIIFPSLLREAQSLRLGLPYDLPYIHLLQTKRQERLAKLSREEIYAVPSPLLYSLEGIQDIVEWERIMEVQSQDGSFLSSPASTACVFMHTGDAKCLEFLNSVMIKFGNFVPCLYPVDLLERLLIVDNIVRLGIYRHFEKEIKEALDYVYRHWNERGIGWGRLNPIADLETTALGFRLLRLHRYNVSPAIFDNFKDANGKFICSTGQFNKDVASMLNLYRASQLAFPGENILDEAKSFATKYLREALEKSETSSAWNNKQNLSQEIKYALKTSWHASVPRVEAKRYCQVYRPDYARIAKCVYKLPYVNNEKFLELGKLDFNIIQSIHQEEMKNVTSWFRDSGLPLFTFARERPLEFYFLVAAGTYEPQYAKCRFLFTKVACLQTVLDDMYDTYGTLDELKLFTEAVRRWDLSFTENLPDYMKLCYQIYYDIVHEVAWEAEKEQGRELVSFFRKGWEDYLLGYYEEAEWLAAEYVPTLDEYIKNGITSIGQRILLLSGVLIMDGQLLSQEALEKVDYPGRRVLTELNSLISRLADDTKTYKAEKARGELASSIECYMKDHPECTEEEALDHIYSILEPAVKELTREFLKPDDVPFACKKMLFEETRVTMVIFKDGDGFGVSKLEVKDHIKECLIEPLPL
As to the kind of experiment: Monoterpene, sesquiterpene and diterpene synthase assays of recombinant AG1 protein expressed in E. coli. In kind it is biochemical. The note with it: extracts of XL1-Blue/pGAG1, 31° C., 2 h. As for the experimental part:
Expression of cDNA Clone AG1 (SEQ ID No:12) in E. coli. Plasmid pGAG1 was transformed into E. coli XL1-Blue (Sambrook, J., et al., (1989) Molecular Cloning: A Laboratory Manual (Cold Spring Harbor Lab., Cold Spring Harbor, N.Y.), 2nd Ed). The resulting bacterial strain E. coli XL1-Blue/pGAG1 was grown at 37° C. in 5 ml of LB medium (Sambrock, J., et al., (1989) Molecular Cloning. A Laboratory Manual (Cold Spring Harbor Lab., Cold Spring Harbor, N.Y.), 2nd Ed) supplemented with 100 μg ampicillin/ml and 12.5 μg tetracycline/ml to A600=1.0, then induced by addition of 1 mM isopropyl-1-thio-β-D-galactopyranoside and grown for another 12 h at 20° C. Cells were harvested by centrifugation (2000×g, 10 min) and resuspended in either 1 ml monoterpene synthase assay buffer, 1 ml sesquiterpene synthase assay buffer, or 1 ml diterpene synthase assay buffer (Bohlmann, J., et al., J. Biol. Chem. 272:21784-21792(1997)). […]
Characterization of Products of Recombinant E-α-Bisabolene Synthase Encoded by cDNA Clone AG1 (SEQ ID No:12) in E. coli. […] Mass spectra were compared to those of authentic standards and analyzed by Hewlett-Packard Chemstation software. […]

`CC(C)=CCC/C(C)=C/CC/C(C)=C/CC/C(C)=C/COP(=O)(O)OP(=O)(O)O` [geranylgeranyl diphosphate, reference compound]: the “conversion of substrate to terpene olefin” value is given as “no diterpene synthase activity”.
To `CC(C)=CCC/C(C)=C/COP(=O)(O)OP(=O)(O)O` [geranyl diphosphate, reference compound] belongs “inefficiently converted”.

For the origin of these results see patent US6451576B1, “Sesquiterpene synthases from grand fir (Abies grandis), and methods of use” (Washington State University Research Foundation, priority 1998, dated 2002).
